The target in the first test is T1, CaV2.2 (Homo sapiens, UniProt Q00975).
T1 construct: expressed in transfected cells; host or cells: unnamed doxycycline-inducible cell line
T1 sequence (Q00975 whole entry): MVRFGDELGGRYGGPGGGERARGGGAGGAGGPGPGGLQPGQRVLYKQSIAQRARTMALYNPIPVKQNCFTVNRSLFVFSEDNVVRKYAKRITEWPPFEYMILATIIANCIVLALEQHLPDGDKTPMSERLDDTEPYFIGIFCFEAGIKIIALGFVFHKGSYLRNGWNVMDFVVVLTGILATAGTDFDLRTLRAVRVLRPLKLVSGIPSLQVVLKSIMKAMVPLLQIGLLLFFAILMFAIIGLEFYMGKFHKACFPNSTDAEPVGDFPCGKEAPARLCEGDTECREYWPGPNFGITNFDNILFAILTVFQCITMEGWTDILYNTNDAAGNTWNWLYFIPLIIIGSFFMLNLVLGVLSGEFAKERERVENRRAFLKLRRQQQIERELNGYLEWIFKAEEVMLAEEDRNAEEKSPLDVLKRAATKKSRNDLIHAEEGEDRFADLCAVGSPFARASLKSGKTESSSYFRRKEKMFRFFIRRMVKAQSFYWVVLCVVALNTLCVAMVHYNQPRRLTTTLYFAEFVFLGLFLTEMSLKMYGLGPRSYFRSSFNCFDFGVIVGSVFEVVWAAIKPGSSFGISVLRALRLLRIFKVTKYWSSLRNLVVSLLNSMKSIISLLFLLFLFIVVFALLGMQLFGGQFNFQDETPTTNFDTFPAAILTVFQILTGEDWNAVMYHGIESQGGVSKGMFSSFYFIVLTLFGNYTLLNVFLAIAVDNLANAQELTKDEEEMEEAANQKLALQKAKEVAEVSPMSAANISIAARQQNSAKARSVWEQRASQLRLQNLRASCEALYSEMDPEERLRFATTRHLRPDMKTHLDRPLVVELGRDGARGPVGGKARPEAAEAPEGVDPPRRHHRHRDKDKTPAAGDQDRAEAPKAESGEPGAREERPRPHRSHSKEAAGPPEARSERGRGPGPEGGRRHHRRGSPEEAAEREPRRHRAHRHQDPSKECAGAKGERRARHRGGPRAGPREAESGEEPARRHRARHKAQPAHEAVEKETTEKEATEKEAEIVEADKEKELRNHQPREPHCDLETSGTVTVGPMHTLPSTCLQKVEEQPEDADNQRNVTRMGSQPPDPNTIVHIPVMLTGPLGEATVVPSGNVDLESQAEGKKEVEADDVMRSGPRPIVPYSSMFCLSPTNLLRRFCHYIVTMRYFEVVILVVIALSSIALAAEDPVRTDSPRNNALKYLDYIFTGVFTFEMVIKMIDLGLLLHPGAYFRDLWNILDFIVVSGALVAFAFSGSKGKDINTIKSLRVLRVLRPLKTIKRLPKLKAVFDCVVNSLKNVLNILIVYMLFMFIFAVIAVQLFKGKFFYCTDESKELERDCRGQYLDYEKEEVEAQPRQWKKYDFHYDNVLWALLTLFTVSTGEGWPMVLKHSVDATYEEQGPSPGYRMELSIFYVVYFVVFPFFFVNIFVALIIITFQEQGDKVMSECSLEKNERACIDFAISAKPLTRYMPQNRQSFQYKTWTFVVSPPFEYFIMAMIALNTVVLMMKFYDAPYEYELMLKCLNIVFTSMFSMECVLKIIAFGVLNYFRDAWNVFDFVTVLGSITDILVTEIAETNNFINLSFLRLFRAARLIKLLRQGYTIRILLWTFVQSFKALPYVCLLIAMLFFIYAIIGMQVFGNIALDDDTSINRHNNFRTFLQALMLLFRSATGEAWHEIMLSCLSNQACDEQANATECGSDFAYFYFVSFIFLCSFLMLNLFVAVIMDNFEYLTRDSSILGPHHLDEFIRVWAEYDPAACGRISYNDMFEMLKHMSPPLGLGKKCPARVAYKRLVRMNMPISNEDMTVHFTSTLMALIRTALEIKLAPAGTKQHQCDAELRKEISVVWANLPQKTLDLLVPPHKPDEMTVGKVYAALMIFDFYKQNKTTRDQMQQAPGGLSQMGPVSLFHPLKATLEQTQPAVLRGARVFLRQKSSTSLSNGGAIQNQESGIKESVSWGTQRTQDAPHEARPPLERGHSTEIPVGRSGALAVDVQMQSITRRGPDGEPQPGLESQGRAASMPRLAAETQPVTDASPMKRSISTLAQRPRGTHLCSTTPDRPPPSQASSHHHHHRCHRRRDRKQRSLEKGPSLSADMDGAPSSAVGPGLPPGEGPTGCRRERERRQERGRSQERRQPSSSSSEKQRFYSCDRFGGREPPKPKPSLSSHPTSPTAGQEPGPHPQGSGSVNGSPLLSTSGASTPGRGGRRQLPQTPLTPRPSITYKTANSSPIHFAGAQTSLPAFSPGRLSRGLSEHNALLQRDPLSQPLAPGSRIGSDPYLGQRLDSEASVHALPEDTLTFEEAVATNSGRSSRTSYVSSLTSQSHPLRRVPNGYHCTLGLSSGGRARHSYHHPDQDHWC
T1 sequence (P54284 whole entry partner): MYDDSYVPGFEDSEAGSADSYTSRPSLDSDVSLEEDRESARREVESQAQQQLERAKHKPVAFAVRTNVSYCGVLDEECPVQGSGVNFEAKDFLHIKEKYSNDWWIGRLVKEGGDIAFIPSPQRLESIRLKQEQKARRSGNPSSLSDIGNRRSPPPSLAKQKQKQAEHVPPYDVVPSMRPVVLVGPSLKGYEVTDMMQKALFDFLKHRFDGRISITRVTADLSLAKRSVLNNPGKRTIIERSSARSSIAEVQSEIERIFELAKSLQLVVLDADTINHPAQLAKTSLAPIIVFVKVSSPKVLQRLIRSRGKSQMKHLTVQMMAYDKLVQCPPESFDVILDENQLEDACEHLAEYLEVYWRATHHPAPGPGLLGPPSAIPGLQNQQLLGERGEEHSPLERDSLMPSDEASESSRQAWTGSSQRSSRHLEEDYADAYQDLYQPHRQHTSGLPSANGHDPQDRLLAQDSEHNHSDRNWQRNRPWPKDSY
T1 sequence (P54289 25-946 partner limits assumed): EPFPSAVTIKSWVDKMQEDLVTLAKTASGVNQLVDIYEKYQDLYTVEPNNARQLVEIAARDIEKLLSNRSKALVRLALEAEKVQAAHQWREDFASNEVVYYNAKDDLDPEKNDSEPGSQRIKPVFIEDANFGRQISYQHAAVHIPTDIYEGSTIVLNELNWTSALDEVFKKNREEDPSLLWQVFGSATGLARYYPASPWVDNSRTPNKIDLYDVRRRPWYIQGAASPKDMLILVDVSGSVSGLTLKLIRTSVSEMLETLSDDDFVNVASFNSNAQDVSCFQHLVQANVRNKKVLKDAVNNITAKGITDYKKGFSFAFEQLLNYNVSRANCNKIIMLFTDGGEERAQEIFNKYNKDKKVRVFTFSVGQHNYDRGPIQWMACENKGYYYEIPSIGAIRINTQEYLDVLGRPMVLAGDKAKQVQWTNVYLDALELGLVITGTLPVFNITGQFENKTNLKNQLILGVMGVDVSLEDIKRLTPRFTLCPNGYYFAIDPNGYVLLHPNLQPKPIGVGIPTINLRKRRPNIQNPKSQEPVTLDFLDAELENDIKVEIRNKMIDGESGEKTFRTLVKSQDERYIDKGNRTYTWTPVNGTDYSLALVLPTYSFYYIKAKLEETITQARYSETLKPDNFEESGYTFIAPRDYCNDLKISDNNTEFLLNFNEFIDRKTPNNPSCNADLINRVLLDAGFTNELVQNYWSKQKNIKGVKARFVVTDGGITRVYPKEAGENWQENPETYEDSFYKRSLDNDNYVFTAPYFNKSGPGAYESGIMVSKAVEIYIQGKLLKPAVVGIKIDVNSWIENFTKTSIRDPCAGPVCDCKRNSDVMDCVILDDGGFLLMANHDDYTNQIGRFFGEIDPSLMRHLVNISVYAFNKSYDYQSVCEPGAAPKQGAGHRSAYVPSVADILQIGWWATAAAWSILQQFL
T1 sequence (P54289 947-1103 partner limits assumed): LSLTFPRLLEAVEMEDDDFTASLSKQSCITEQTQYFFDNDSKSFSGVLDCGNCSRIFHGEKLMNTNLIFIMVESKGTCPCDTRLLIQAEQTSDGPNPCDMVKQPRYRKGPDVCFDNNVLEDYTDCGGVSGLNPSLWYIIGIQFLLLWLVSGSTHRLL
Kind of test: High-throughput CaV2.2/Kir2.3 FLIPR fluorescent assay. It is filed as cell-based. To be noted: Table 4; Fluo-4 FLIPR; closed or inactivated state not stated; read-out: FLIPR data CaV2.2. In a few lines:
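Doxycycline-induced cells moved to 29 °C on assay day and were loaded with 4.4 μM Fluo-4. They were held in 2 mM KCl (closed state) or 12.5 mM KCl (inactivated state) buffer, pH 7.4, then depolarized with 130 mM KCl. Fluorescence was read 3 min on FLIPR, and IC50 was obtained from logistic fits.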
With `O=C1c2ccc(C(F)(F)F)nc2CN1Cc1ccc(S(=O)(=O)c2cccc(C(F)(F)F)c2)cc1` [Compound 56, 2-(trifluoromethyl)-6-(4-((3-(trifluoromethyl)phenyl)sulfonyl)benzyl)-6,7-dihydro-5H-pyrrolo[3,4-b]pyridin-5-one], the IC50 turned out to be 310 nM. Take `CC(C)(N)C(=O)NCc1ccc(S(=O)(=O)c2cccc(C(F)(F)F)c2)cc1` [Compound 64, 2-amino-2-methyl-N-(4-((3-(trifluoromethyl)phenyl)sulfonyl)benzyl)propanamide]: the IC50 stood at 4070 nM.

Turning to `CS(=O)(=O)c1nc(C(F)(F)F)ccc1C(=O)NCc1ccccc1S(=O)(=O)c1cccc(C(F)(F)F)c1` [Compound 40], the IC50 was determined as 7000 nM. Take `CS(=O)(=O)c1nc(C(F)(F)F)ccc1C(=O)NCc1ccc(S(=O)(=O)c2cccc(C(F)(F)F)c2)cn1` [Compound 92, 2-(methylsulfonyl)-6-(trifluoromethyl)-N-((5-((3-(trifluoromethyl)phenyl)sulfonyl)pyridin-2-yl)methyl)nicotinamide]: the IC50 was 2330 nM. On to `O=C(NCc1ccc(S(=O)(=O)c2cccc(C(F)(F)F)c2)cc1)[C@@H]1CCCN1` [Compound 73, (S)-N-(4-((3-(trifluoromethyl)phenyl)sulfonyl)benzyl)pyrrolidine-2-carboxamide], for which the IC50 was 1920 nM. With `O=C(NCc1ccccc1S(=O)(=O)c1cccc(C(F)(F)F)c1)c1ccc(C(F)(F)F)nc1` [Compound 38], the IC50 is 1120 nM.

Consider `O=C(NCc1cc(S(=O)(=O)c2cccc(C(F)(F)F)c2)ccn1)c1ccnn1CC(F)(F)F` [Compound 112, 1-(2,2,2-trifluoroethyl)-N-((4-((3-(trifluoromethyl)phenyl)sulfonyl)pyridin-2-yl)methyl)-1H-pyrazole-5-carboxamide], for which the IC50 turned out to be 1030 nM. For the molecule `O=C(NCc1ccccc1S(=O)(=O)c1cccc(C(F)(F)F)c1)[C@H]1CCCN1` [Compound 78, (R)-N-(2-((3-(trifluoromethyl)phenyl)sulfonyl)benzyl)pyrrolidine-2-carboxamide], the IC50 is 3750 nM.

Still in this test, the particulars now being: Table 5; Fluo-4 FLIPR; closed or inactivated state not stated; read-out: FLIPR data CaV2.2.
As for `CC(C)(C(=O)N1CCC(c2nc3ccccc3[nH]2)CC1)S(=O)(=O)c1cccc(C(F)(F)F)c1` [Compound 138, 1-(4-(1H-benzol[d]imidazol-2-yl)piperidin-1-yl)-2-methyl-2-((3-(trifluoromethyl)phenyl)sulfonyl)propan-1-one], the IC50 stood at 1480 nM. Consider `COc1ccc(S(=O)(=O)N2CCOCC2)cc1C(=O)NCC(C)(C)S(=O)(=O)c1cccc(C(F)(F)F)c1` [Compound 166, 2-methoxy-N-(2-methyl-2-((3-(trifluoromethyl)phenyl)sulfonyl)propyl)-5-(morpholinosulfonyl)benzamide], for which the IC50 is 1310 nM. In the case of `Cc1cc(Cl)ccc1C(=O)NCC(C)(C)S(=O)(=O)c1cccc(C(F)(F)F)c1` [Compound 168, 4-chloro-2-methyl-N-(2-methyl-2-((3-(trifluoromethyl)phenyl)sulfonyl)propyl)benzamide], the IC50 is 1020 nM. Take `COc1cc(OC)cc(C(O)CNC(=O)C(C)(C)S(=O)(=O)c2cccc(C(F)(F)F)c2)c1` (stereo not shown) [Compound 142, N-(2-(3,5-dimethoxyphenyl)-2-hydroxyethyl)-2-methyl-2-((3-(trifluoromethyl)phenyl)sulfonyl)propanamide]: the IC50 is 440 nM.

With `CC(C)(CCNC(=O)CC1(N)CCCCC1)S(=O)(=O)c1cccc(C(F)(F)F)c1` [Compound 223, 2-(1-aminocyclohexyl)-N-(3-methyl-3-((3-(trifluoromethyl)phenyl)sulfonyl)butyl)acetamide], the IC50 was determined as 360 nM. `CC(C)(NC(=O)C(C)(C)S(=O)(=O)c1cccc(C(F)(F)F)c1)c1ccccc1` [Compound 126, 2-methyl-N-(2-phenylpropan-2-yl)-2-((3-(trifluoromethyl)phenyl)sulfonyl)propanamide]: the IC50 turned out to be 4310 nM.

Regarding `CC(C)(CCNC(=O)C1(N)CCC1)S(=O)(=O)c1cccc(C(F)(F)F)c1` [Compound 203, 1-amino-N-(3-methyl-3-((3-(trifluoromethyl)phenyl)sulfonyl)butyl)cyclobutanecarboxamide], the IC50 amounted to 5850 nM. Same read-out and setting: the value for `CC(C)(C)C(=O)Nc1ncccc1C(=O)NCC(C)(C)S(=O)(=O)c1cccc(C(F)(F)F)c1` [Compound 163, N-(2-methyl-2-((3-(trifluoromethyl)phenyl)sulfonyl)propyl)-2-pivalamidonicotinamide] was 2250 nM.

In the case of `CC(C)(CCNC(=O)[C@@H]1CCCN1)S(=O)(=O)c1cccc(C(F)(F)F)c1` [Compound 219, (S)-N-(3-methyl-3-((3-(trifluoromethyl)phenyl)sulfonyl)butyl)pyrrolidine-2-carboxamide], the IC50 was 3230 nM. The same measure, in the same setting: the figure for `CC(C)(CCNC(=O)[C@H]1CCCCN1)S(=O)(=O)c1cccc(C(F)(F)F)c1` [Compound 195, (R)-N-(3-methyl-3-((3-(trifluoromethyl)phenyl)sulfonyl)butyl)piperidine-2-carboxamide] is 3110 nM; for `CC(C)(CCNC(=O)[C@H]1CCCC[C@@H]1N)S(=O)(=O)c1cccc(C(F)(F)F)c1` [Compound 208, (1S,2S)-2-amino-N-(3-methyl-3-((3-(trifluoromethyl)phenyl)sulfonyl)butyl)cyclohexanecarboxamide] it is 1750 nM; for `CC(C)(CNC(=O)c1ccc(F)cc1Cl)S(=O)(=O)c1cccc(C(F)(F)F)c1` [Compound 159, 2-chloro-4-fluoro-N-(2-methyl-2-((3-(trifluoromethyl)phenyl)sulfonyl)propyl)benzamide] it is 1320 nM. Consider `CC(C)(CC(=O)NCCC(F)(F)F)S(=O)(=O)c1cccc(C(F)(F)F)c1` [Compound 151, 3-methyl-3-((3-(trifluoromethyl)phenyl)sulfonyl)-N-(3,3,3-trifluoropropyl)butanamide], for which the IC50 was 8230 nM.

Turning to `CC1(C(=O)NCCC(C)(C)S(=O)(=O)c2cccc(C(F)(F)F)c2)CCCCN1` (stereo not shown) [Compound 222, 2-methyl-N-(3-methyl-3-((3-(trifluoromethyl)phenyl)sulfonyl)butyl)piperidine-2-carboxamide], the IC50 worked out at 3770 nM.

With `Cc1ccc(C(=O)NCC(C)(C)S(=O)(=O)c2cccc(C(F)(F)F)c2)c(C)c1` [Compound 169, 2,4-dimethyl-N-(2-methyl-2-((3-(trifluoromethyl)phenyl)sulfonyl)propyl)benzamide], the IC50 stood at 1360 nM. `CC(C)(CCNC(=O)C1(N)CCCCC1)S(=O)(=O)c1cccc(C(F)(F)F)c1` [Compound 207, 1-amino-N-(3-methyl-3-((3-(trifluoromethyl)phenyl)sulfonyl)butyl)cyclohexanecarboxamide]: the IC50 was found to be 1390 nM. As to `CC(C)(CCNC(=O)[C@@H]1C[C@@H](O)CN1)S(=O)(=O)c1cccc(C(F)(F)F)c1` [Compound 217, (2S,4R)-4-hydroxy-N-(3-methyl-3-((3-(trifluoromethyl)phenyl)sulfonyl)butyl)pyrrolidine-2-carboxamide], the IC50 turned out to be 8170 nM. The same measure, in the same setting: the value for `CC(C)(CCNC(=O)[C@H]1CCCC[C@H]1N)S(=O)(=O)c1cccc(C(F)(F)F)c1` [Compound 209, (1S,2R)-2-amino-N-(3-methyl-3-((3-(trifluoromethyl)phenyl)sulfonyl)butyl)cyclohexanecarboxamide] was 1680 nM; that for `CC(C)(C(=O)NCC(O)c1ccccc1Cl)S(=O)(=O)c1cccc(C(F)(F)F)c1` (stereo not shown) [Compound 141, N-(2-(2-chlorophenyl)-2-hydroxyethyl)-2-methyl-2-((3-(trifluoromethyl)phenyl)sulfonyl)propanamide] was 1090 nM.

A further test has as its target T2, CaV3.2 (Homo sapiens, UniProt O95180).
T2 construct: expressed in transfected cells; host or cells: unnamed doxycycline-inducible cell line
Kind of test: High-throughput CaV3.2/Kir2.3 T-type FLIPR fluorescent assay. To be noted: Table 4; Fluo-4 FLIPR; closed or inactivated state not stated. It is filed as cell-based. On the procedure: Cells were plated in 384-well, clear-bottom, black-walled, poly-D-lysine coated plates (Becton Dickinson, Franklin Lake, N.J.) 2 days prior to use in the FLIPR assay. 100 µL of cells (1.2×10^6 cell/mL) containing doxycyline (Sigma-Aldrich, 1.5 μg/mL; to induce channel expression) were added to each well using a Multidrop (Thermo Scientific, Waltham, Mass.) and were maintained in 5% CO2 incubator at 37° C. On the morning of the assay, cells were transferred to a 5% CO2 incubator at 29° C.
Cells were washed with a wash buffer containing (in mM): 118 NaCl, 18.4 HEPES, 11.7 D-glucose, 2 CaCl2, 0.5 MgSO4, 4.7 KCl, and 1.2 KH2PO4, with the pH adjusted to 7.2 with
NaOH. 4.4 μM of the fluorescent indicator dye Fluo-4 (Invitrogen) prepared in pluronic acid (Sigma-Aldrich) was loaded into the wells and incubated for 45 minutes at 29° C. in 5% CO2. Cells were then rinsed with either a 2 mM KCl closed-state buffer (in mM: 138.5 NaCl, 10 HEPES, 10 D-glucose, 1 CaCl2, and 2 KCl, with the pH adjusted to 7.4 with NaOH) when performing the closed-state assay or 7.6 mM KCl inactivated-state buffer (in mM: 130.9 NaCl, 10 HEPES, 10 D-glucose, 1 CaCl2, and 7.6 mM KCl, with the pH adjusted to 7.4 with NaOH) when performing the inactivated-state assay. Concentration-dependent response curves were generated from 5 mM stock solutions prepared in DMSO (Sigma-Aldrich), diluted in either the 2 mM KCl buffer or 7.6 mM KCl buffer, and incubated for 20 minutes at 29° C. in 5% CO2. Calcium entry was evoked with an addition of either 12 mM KCl stimulation buffer (in mM: 128.5 NaCl, 10 HEPES, 10 D-glucose, 1 CaCl2, and 12 KCl, with the pH adjusted to 7.4 with NaOH) or 14.5 mM KCl stimulation buffer (in mM: 126 NaCl, 10 HEPES, 10 D-glucose, 1 CaCl2, and 14.5 KCl, with the pH adjusted to 7.4 with NaOH) for the closed-state or inactivated-state assay respectively. A change in the Fluo-4 fluorescence signal was assessed using FLIPR^TETRA™ instrument (Molecular Devices, Sunnyvale, Calif.) for 3 minutes following the elevation of extracellular KCl using an illumination wavelength of 470-495 nm with emissions recorded at 515-575 nm.
Concentration-dependent response curves were obtained by comparing the fluorescence signal in the presence of compound and fitted with a logistic function (1) to obtain the concentration that inhibited 50% (IC50) of the RLU signal using OriginPro v.7.5 software (OriginLab, Northampton, Mass.).
To assess the quality of the FLIPR assays the Z-factor (2) was used to quantify the suitability of the assay conditions using the following equation: […]
Data are expressed as mean and standard deviation (SD).
For `O=C1c2ccc(C(F)(F)F)nc2CN1Cc1ccc(S(=O)(=O)c2cccc(C(F)(F)F)c2)cc1` [Compound 56, 2-(trifluoromethyl)-6-(4-((3-(trifluoromethyl)phenyl)sulfonyl)benzyl)-6,7-dihydro-5H-pyrrolo[3,4-b]pyridin-5-one], the IC50 amounted to 2660 nM.

The test is the same for the next values; noted with them: Table 5; Fluo-4 FLIPR; closed or inactivated state not stated.
In turn, `CC(C)(C(=O)N1CCC(c2nc3ccccc3[nH]2)CC1)S(=O)(=O)c1cccc(C(F)(F)F)c1` [Compound 138, 1-(4-(1H-benzol[d]imidazol-2-yl)piperidin-1-yl)-2-methyl-2-((3-(trifluoromethyl)phenyl)sulfonyl)propan-1-one] showed an IC50 of 5100 nM. `COc1ccc(S(=O)(=O)N2CCOCC2)cc1C(=O)NCC(C)(C)S(=O)(=O)c1cccc(C(F)(F)F)c1` [Compound 166, 2-methoxy-N-(2-methyl-2-((3-(trifluoromethyl)phenyl)sulfonyl)propyl)-5-(morpholinosulfonyl)benzamide] showed an IC50 of 9680 nM. `Cc1cc(Cl)ccc1C(=O)NCC(C)(C)S(=O)(=O)c1cccc(C(F)(F)F)c1` [Compound 168, 4-chloro-2-methyl-N-(2-methyl-2-((3-(trifluoromethyl)phenyl)sulfonyl)propyl)benzamide] showed an IC50 of 5160 nM.
